Tests used:
Experiment in all cases: relative viability (nuclei count vs DMSO), 5 days (fraction); higher = more cells survive
[1] = compound: COc1cc(Nc2c(C#N)cnc3cc(OCCCN4CCN(C)CC4)c(OC)cc23)c(Cl)cc1Cl [Bosutinib] + Cc1cc(Nc2cc(N3CCN(C)CC3)nc(Sc3ccc(NC(=O)C4CC4)cc3)n2)n[nH]1 [Tozasertib] (partner 0.1 µM)
Method in brief: (§1)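 Lung cancer cell lines, seeded in 1536-well plates, were treated the following day by pin tool with a single drug or with five library-drug doses (not always all listed) in √10 steps on top of a fixed anchor-drug dose. Cells were fixed and nuclei stained in one step after 5 days, and nuclei were counted. Relative viability is the nuclei count for treated wells divided by that for vehicle wells, reported as medians of duplicate plates.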

[2] = compound: COc1cc(Nc2c(C#N)cnc3cc(OCCCN4CCN(C)CC4)c(OC)cc23)c(Cl)cc1Cl [Bosutinib] + CCNC(=O)c1noc(-c2cc(C(C)C)c(O)cc2O)c1-c1ccc(CN2CCOCC2)cc1 [Luminespib] (partner 0.01 µM)
Method in brief: as §1

[3] = compound: COc1cc(Nc2c(C#N)cnc3cc(OCCCN4CCN(C)CC4)c(OC)cc23)c(Cl)cc1Cl [Bosutinib] + N=C(N)NC(=N)NCCc1ccccc1 [Phenformin] (partner 250 µM)
Method in brief: as §1

[4] = compound: COc1cc(Nc2c(C#N)cnc3cc(OCCCN4CCN(C)CC4)c(OC)cc23)c(Cl)cc1Cl [Bosutinib] + COc1cccc2cc(-c3nc([C@H]4CC[C@H](C(=O)O)CC4)n4ncnc(N)c34)[nH]c12 [OSI-027] (partner 0.5 µM)
Method in brief: as §1

[5] = compound: COc1cc(Nc2c(C#N)cnc3cc(OCCCN4CCN(C)CC4)c(OC)cc23)c(Cl)cc1Cl [Bosutinib] + COc1cc2c(Oc3ccc(NC(=O)C4(C(=O)Nc5ccc(F)cc5)CC4)cc3F)ccnc2cc1OCCCN1CCOCC1 [Foretinib] (partner 0.25 µM)
Method in brief: as §1

[6] = compound: COc1cc(Nc2c(C#N)cnc3cc(OCCCN4CCN(C)CC4)c(OC)cc23)c(Cl)cc1Cl [Bosutinib] + Cc1nc(Nc2ncc(C(=O)Nc3c(C)cccc3Cl)s2)cc(N2CCN(CCO)CC2)n1 [Dasatinib] (partner 0.075 µM)
Method in brief: as §1

[7] = compound: COc1cc(Nc2c(C#N)cnc3cc(OCCCN4CCN(C)CC4)c(OC)cc23)c(Cl)cc1Cl [Bosutinib]
Method in brief: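 Acceptance criteria were a control CV below 25% and at least one doubling per plate. Lung cancer cell lines in 1536-well plates got five library-drug doses (not always all listed) √10 apart by pinning and were left 5 days with no medium change. Viability divides treated-well nuclei by vehicle-well nuclei and is the median across plates. Nuclei were counted by MetaXpress from 4× Hoechst images.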

[8] = compound: COc1cc(Nc2c(C#N)cnc3cc(OCCCN4CCN(C)CC4)c(OC)cc23)c(Cl)cc1Cl [Bosutinib] + O=C(c1cc(Cc2n[nH]c(=O)c3ccccc23)ccc1F)N1CCN(C(=O)C2CC2)CC1 [Olaparib] (partner 8 µM)
Method in brief: as §1

[9] = compound: COc1cc(Nc2c(C#N)cnc3cc(OCCCN4CCN(C)CC4)c(OC)cc23)c(Cl)cc1Cl [Bosutinib] + Nc1ncn([C@H]2C[C@H](O)[C@@H](CO)O2)c(=O)n1 [Decitabine] (partner 2 µM)
Method in brief: as §1

[10] = compound: COc1cc(Nc2c(C#N)cnc3cc(OCCCN4CCN(C)CC4)c(OC)cc23)c(Cl)cc1Cl [Bosutinib] + Nc1nc2[nH]cc(CCc3ccc(C(=O)N[C@@H](CCC(=O)O)C(=O)O)cc3)c2c(=O)[nH]1 [Pemetrexed] (partner 0.2 µM)
Method in brief: as §1

[11] = compound: COc1cc(Nc2c(C#N)cnc3cc(OCCCN4CCN(C)CC4)c(OC)cc23)c(Cl)cc1Cl [Bosutinib] + CC(=O)c1c(C)c2cnc(Nc3ccc(N4CCNCC4)cn3)nc2n(C2CCCC2)c1=O [Palbociclib] (partner 0.5 µM)
Method in brief: as §1

[12] = compound: COc1cc(Nc2c(C#N)cnc3cc(OCCCN4CCN(C)CC4)c(OC)cc23)c(Cl)cc1Cl [Bosutinib] + O=C(CCCCCCC(=O)Nc1ccccc1)NO [Vorinostat] (partner 1 µM)
Method in brief: as §1

[13] = compound: COc1cc(Nc2c(C#N)cnc3cc(OCCCN4CCN(C)CC4)c(OC)cc23)c(Cl)cc1Cl [Bosutinib] + NC(=O)Nc1cc(-c2cccc(F)c2)sc1C(=O)N[C@H]1CCCNC1 [AZD7762] (partner 0.2 µM)
Method in brief: as §1

[14] = compound: COc1cc(Nc2c(C#N)cnc3cc(OCCCN4CCN(C)CC4)c(OC)cc23)c(Cl)cc1Cl [Bosutinib] + CC(=O)Nc1cccc(-n2c(=O)n(C3CC3)c(=O)c3c(Nc4ccc(I)cc4F)n(C)c(=O)c(C)c32)c1 [Trametinib] (partner 0.02 µM)
Method in brief: as §1

## NCI-H1623
[1]; first compound 0.01 µM
  relative viability: 0.474
[1]; first compound 0.03162 µM
  relative viability: 0.425
[1]; first compound 0.1 µM
  relative viability: 0.428
[1]; first compound 1 µM
  relative viability: 0.399
[2]; first compound 0.01 µM
  relative viability: 0.645
[2]; first compound 0.03162 µM
  relative viability: 0.565
[2]; first compound 0.1 µM
  relative viability: 0.517
[2]; first compound 1 µM
  relative viability: 0.497
[3]; first compound 0.01 µM
  relative viability: 0.534
[3]; first compound 0.03162 µM
  relative viability: 0.591
[3]; first compound 0.1 µM
  relative viability: 0.51
[3]; first compound 1 µM
  relative viability: 0.51
[4]; first compound 0.01 µM
  relative viability: 0.432
[4]; first compound 0.03162 µM
  relative viability: 0.418
[4]; first compound 0.1 µM
  relative viability: 0.45
[4]; first compound 1 µM
  relative viability: 0.416
[5]; first compound 0.01 µM
  relative viability: 0.854
[5]; first compound 0.03162 µM
  relative viability: 0.846
[5]; first compound 0.1 µM
  relative viability: 0.866
[5]; first compound 1 µM
  relative viability: 0.64
[6]; first compound 0.01 µM
  relative viability: 0.38
[6]; first compound 0.03162 µM
  relative viability: 0.555
[6]; first compound 0.1 µM
  relative viability: 0.542
[6]; first compound 1 µM
  relative viability: 0.57
[7]; 0.01 µM
  relative viability: 0.891
[7]; 0.03162 µM
  relative viability: 0.95
[7]; 0.1 µM
  relative viability: 0.979
[7]; 1 µM
  relative viability: 0.724

## NCI-H1648
[1]; first compound 0.01 µM
  relative viability: 0.594
[1]; first compound 0.03162 µM
  relative viability: 0.447
[1]; first compound 0.1 µM
  relative viability: 0.396
[1]; first compound 1 µM
  relative viability: 0.462
[8]; first compound 0.01 µM
  relative viability: 0.953
[8]; first compound 0.03162 µM
  relative viability: 0.703
[8]; first compound 0.1 µM
  relative viability: 1.01
[8]; first compound 1 µM
  relative viability: 0.77
[9]; first compound 0.01 µM
  relative viability: 0.471
[9]; first compound 0.03162 µM
  relative viability: 0.622
[9]; first compound 0.1 µM
  relative viability: 0.662
[9]; first compound 1 µM
  relative viability: 0.675
[10]; first compound 0.01 µM
  relative viability: 0.728
[10]; first compound 0.03162 µM
  relative viability: 0.824
[10]; first compound 0.1 µM
  relative viability: 0.744
[10]; first compound 1 µM
  relative viability: 0.813
[11]; first compound 0.01 µM
  relative viability: 0.297
[11]; first compound 0.03162 µM
  relative viability: 0.278
[11]; first compound 0.1 µM
  relative viability: 0.26
[11]; first compound 1 µM
  relative viability: 0.341
[4]; first compound 0.01 µM
  relative viability: 0.286
[4]; first compound 0.03162 µM
  relative viability: 0.251
[4]; first compound 0.1 µM
  relative viability: 0.261
[4]; first compound 1 µM
  relative viability: 0.245
[12]; first compound 0.01 µM
  relative viability: 0.389
[12]; first compound 0.03162 µM
  relative viability: 0.471
[12]; first compound 0.1 µM
  relative viability: 0.541
[12]; first compound 1 µM
  relative viability: 0.511
[13]; first compound 0.01 µM
  relative viability: 0.659
[13]; first compound 0.03162 µM
  relative viability: 0.639
[13]; first compound 0.1 µM
  relative viability: 0.838
[13]; first compound 1 µM
  relative viability: 0.61
[14]; first compound 0.01 µM
  relative viability: 0.548
[14]; first compound 0.03162 µM
  relative viability: 0.501
[14]; first compound 0.1 µM
  relative viability: 0.505
[14]; first compound 1 µM
  relative viability: 0.421
[7]; 0.01 µM
  relative viability: 1.15
[7]; 0.03162 µM
  relative viability: 0.851
[7]; 0.1 µM
  relative viability: 0.997
[7]; 1 µM
  relative viability: 0.931

## NCI-H2342
[1]; first compound 0.01 µM
  relative viability: 0.51
[1]; first compound 0.03162 µM
  relative viability: 0.449
[1]; first compound 0.1 µM
  relative viability: 0.526
[1]; first compound 1 µM
  relative viability: 0.517
[8]; first compound 0.01 µM
  relative viability: 0.419
[8]; first compound 0.03162 µM
  relative viability: 0.379
[8]; first compound 0.1 µM
  relative viability: 0.464
[8]; first compound 1 µM
  relative viability: 0.432
[2]; first compound 0.01 µM
  relative viability: 0.587
[2]; first compound 0.03162 µM
  relative viability: 0.714
[2]; first compound 0.1 µM
  relative viability: 0.694
[2]; first compound 1 µM
  relative viability: 0.666
[9]; first compound 0.01 µM
  relative viability: 0.691
[9]; first compound 0.03162 µM
  relative viability: 0.744
[9]; first compound 0.1 µM
  relative viability: 0.726
[9]; first compound 1 µM
  relative viability: 0.855
[3]; first compound 0.01 µM
  relative viability: 0.565
[3]; first compound 0.03162 µM
  relative viability: 0.68
[3]; first compound 0.1 µM
  relative viability: 0.56
[3]; first compound 1 µM
  relative viability: 0.643
[10]; first compound 0.01 µM
  relative viability: 0.783
[10]; first compound 0.03162 µM
  relative viability: 0.799
[10]; first compound 0.1 µM
  relative viability: 0.813
[10]; first compound 1 µM
  relative viability: 0.841
[11]; first compound 0.01 µM
  relative viability: 0.539
[11]; first compound 0.03162 µM
  relative viability: 0.508
[11]; first compound 0.1 µM
  relative viability: 0.545
[11]; first compound 1 µM
  relative viability: 0.579
[4]; first compound 0.01 µM
  relative viability: 0.634
[4]; first compound 0.03162 µM
  relative viability: 0.669
[4]; first compound 0.1 µM
  relative viability: 0.702
[4]; first compound 1 µM
  relative viability: 0.718
[12]; first compound 0.01 µM
  relative viability: 0.779
[12]; first compound 0.03162 µM
  relative viability: 0.787
[12]; first compound 0.1 µM
  relative viability: 0.859
[12]; first compound 1 µM
  relative viability: 0.828
[13]; first compound 0.01 µM
  relative viability: 0.445
[13]; first compound 0.03162 µM
  relative viability: 0.553
[13]; first compound 0.1 µM
  relative viability: 0.459
[13]; first compound 1 µM
  relative viability: 0.55
[5]; first compound 0.01 µM
  relative viability: 0.903
[5]; first compound 0.03162 µM
  relative viability: 0.994
[5]; first compound 0.1 µM
  relative viability: 0.999
[5]; first compound 1 µM
  relative viability: 1.05
[6]; first compound 0.01 µM
  relative viability: 0.289
[6]; first compound 0.03162 µM
  relative viability: 0.305
[6]; first compound 0.1 µM
  relative viability: 0.317
[6]; first compound 1 µM
  relative viability: 0.344
[14]; first compound 0.01 µM
  relative viability: 0.706
[14]; first compound 0.03162 µM
  relative viability: 0.703
[14]; first compound 0.1 µM
  relative viability: 0.856
[14]; first compound 1 µM
  relative viability: 1.1
[7]; 0.01 µM
  relative viability: 0.961
[7]; 0.03162 µM
  relative viability: 0.99
[7]; 0.1 µM
  relative viability: 0.926
[7]; 1 µM
  relative viability: 1.21
